Data reported in US20080051419A1, “AMINE DERIVATIVES USEFUL AS ANTICANCER AGENTS” (PFIZER INC., priority 2006, published 2008).
Read-outs that look alike come from different tables or passages of the source.

Target: T1, Akt1 (Homo sapiens, UniProt P31749, S473D)
T1 construct: The version of Akt used in these studies lacks the pleckstrin homology (PH) domain
Experiment: Akt1 kinase assay, fluorescence polarization (IMAP)
Assay type: biochemical
Outline: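 His-tagged Akt1 lacking the PH domain, Thr308-prephosphorylated, 1.5 ng per reaction, with 4 μM ATP and 40 nM TAMRA-Crosstide (solution concentrations) in Tris pH 7.5/MgCl2/DTT buffer. Incubated 30 min at ambient temperature; IMAP fluorescence polarization read (544/615 nm). IC50 after subtraction of no-enzyme background.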

[1] = Table 1, concentration bins, read-out: Concentration Range at which exemplary compounds of formula I inhibit Akt kinase activity
[2] = average Akt kinase activity (IC50), read-out: Avg Akt kinase, μM (50% inhibition)

T1 sequence (P31749 118-480 S473D limits assumed, species assumed): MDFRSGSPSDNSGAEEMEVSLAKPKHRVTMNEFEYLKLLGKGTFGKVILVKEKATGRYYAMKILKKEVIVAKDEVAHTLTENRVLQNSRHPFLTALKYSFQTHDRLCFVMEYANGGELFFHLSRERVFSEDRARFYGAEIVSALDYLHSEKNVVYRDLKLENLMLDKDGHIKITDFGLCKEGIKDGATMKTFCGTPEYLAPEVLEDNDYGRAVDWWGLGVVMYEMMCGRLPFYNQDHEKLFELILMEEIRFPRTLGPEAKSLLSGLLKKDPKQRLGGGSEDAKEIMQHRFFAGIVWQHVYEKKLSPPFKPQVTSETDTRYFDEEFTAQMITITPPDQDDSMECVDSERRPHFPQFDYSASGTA

IC50 [1] [µM] | IC50 [2] [µM] | SMILES
0.00025 to 0.0025 | 0.000683 | CCc1c[nH]c2ncnc(N3CC[C@](N)(CNC(=O)c4ccccc4F)C3)c12 [Example 98, N-{[(3S)-3-amino-1-(5-ethyl-7H-pyrrolo[2,3-d]pyrimidin-4-yl)pyrrolidin-3-yl]methyl}-2-fluorobenzamide]
0.0101 to 0.1 | 0.0186 | N#Cc1c[nH]c2ncnc(N3CC[C@](N)(CNC(=O)c4ccc(Cl)cc4F)C3)c12 [Example 99, N-{[(3S)-3-amino-1-(5-cyano-7H-pyrrolo[2,3-d]pyrimidin-4-yl)pyrrolidin-3-yl]methyl}-4-chloro-2-fluorobenzamide]
0.00251 to 0.01 | 0.00972 | Cc1c[nH]c2ncnc(N3CC[C@](N)(CNC(=O)c4ccc(F)cc4Cl)C3)c12 [Example 100, N-{[(3S)-3-amino-1-(5-methyl-7H-pyrrolo[2,3-d]pyrimidin-4-yl)pyrrolidin-3-yl]methyl}-2-chloro-4-fluorobenzamide]
0.0101 to 0.1 | 0.015 | Cc1c[nH]c2ncnc(N3CC[C@](N)(CNC(=O)c4cc(F)ccc4F)C3)c12 [Example 101, N-{[(3S)-3-amino-1-(5-methyl-7H-pyrrolo[2,3-d]pyrimidin-4-yl)pyrrolidin-3-yl]methyl}-2,5-difluorobenzamide]
0.0101 to 0.1 | 0.014 | Cc1c[nH]c2ncnc(N3CC[C@](N)(CNC(=O)c4ccc(Cl)cc4F)C3)c12 [Example 102, N-{[(3S)-3-amino-1-(5-methyl-7H-pyrrolo[2,3-d]pyrimidin-4-yl)pyrrolidin-3-yl]methyl}-4-chloro-2-fluorobenzamide]
0.00251 to 0.01 | 0.00487 | CCc1c[nH]c2ncnc(N3CC[C@](N)(CNC(=O)c4ccc(Cl)cc4F)C3)c12 [Example 103, N-{[(3S)-3-amino-1-(5-ethyl-7H-pyrrolo[2,3-d]pyrimidin-4-yl)pyrrolidin-3-yl]methyl}-4-chloro-2-fluorobenzamide]
0.00251 to 0.01 | 0.00674 | N[C@]1(CNC(=O)c2cccc(F)c2)CCN(c2ncnc3[nH]cc(Cl)c23)C1 [Example 104, N-{[(3S)-3-amino-1-(5-chloro-7H-pyrrolo[2,3-d]pyrimidin-4-yl)pyrrolidin-3-yl]methyl}-3-fluorobenzamide]
0.0101 to 0.1 | 0.0107 | CCc1c[nH]c2ncnc(N3CC[C@](N)(CNC(=O)c4cccc(F)c4)C3)c12 [Example 105, N-{[(3S)-3-amino-1-(5-ethyl-7H-pyrrolo[2,3-d]pyrimidin-4-yl)pyrrolidin-3-yl]methyl}-3-fluorobenzamide]
0.00025 to 0.0025 | 0.0025 | N[C@]1(CNC(=O)c2cc(F)ccc2F)CCN(c2ncnc3[nH]cc(Cl)c23)C1 [Example 106, N-{[(3S)-3-amino-1-(5-chloro-7H-pyrrolo[2,3-d]pyrimidin-4-yl)pyrrolidin-3-yl]methyl}-2,5-difluorobenzamide]
0.00025 to 0.0025 | 0.0011 | N[C@]1(CNC(=O)c2ccc(F)cc2Cl)CCN(c2ncnc3[nH]cc(Cl)c23)C1 [Example 107, N-{[(3S)-3-amino-1-(5-chloro-7H-pyrrolo[2,3-d]pyrimidin-4-yl)pyrrolidin-3-yl]methyl}-2-chloro-4-fluorobenzamide]
0.00251 to 0.01 | 0.00251 | N[C@]1(CNC(=O)c2ccccc2)CCN(c2ncnc3[nH]cc(Cl)c23)C1 [Example 108, N-{[(3S)-3-amino-1-(5-chloro-7H-pyrrolo[2,3-d]pyrimidin-4-yl)pyrrolidin-3-yl]methyl}benzamide]
0.00251 to 0.01 | 0.00586 | Cc1c[nH]c2ncnc(N3CC[C@](N)(CNC(=O)c4ccccc4)C3)c12 [Example 109, N-{[(3S)-3-amino-1-(5-methyl-7H-pyrrolo[2,3-d]pyrimidin-4-yl)pyrrolidin-3-yl]methyl}benzamide]
0.00251 to 0.01 | 0.0073 | CCc1c[nH]c2ncnc(N3CC[C@](N)(CNC(=O)c4ccccc4)C3)c12 [Example 110, N-{[(3S)-3-amino-1-(5-ethyl-7H-pyrrolo[2,3-d]pyrimidin-4-yl)pyrrolidin-3-yl]methyl}benzamide]
0.0101 to 0.1 | 0.0265 | N#Cc1c[nH]c2ncnc(N3CC[C@](N)(CNC(=O)c4ccccc4)C3)c12 [Example 111, N-{[(3S)-3-amino-1-(5-cyano-7H-pyrrolo[2,3-d]pyrimidin-4-yl)pyrrolidin-3-yl]methyl}benzamide]
0.00251 to 0.01 | 0.00376 | N[C@]1(CNC(=O)c2cccc(Cl)c2)CCN(c2ncnc3[nH]cc(Cl)c23)C1 [Example 112, N-{[(3S)-3-amino-1-(5-chloro-7H-pyrrolo[2,3-d]pyrimidin-4-yl)pyrrolidin-3-yl]methyl}-3-chlorobenzamide]
0.0101 to 0.1 | 0.0332 | N[C@]1(CNC(=O)c2c(F)cccc2Cl)CCN(c2ncnc3[nH]cc(Cl)c23)C1 [Example 113, N-{[(3S)-3-amino-1-(5-chloro-7H-pyrrolo[2,3-d]pyrimidin-4-yl)pyrrolidin-3-yl]methyl}-2-chloro-6-fluorobenzamide]
0.0101 to 0.1 | 0.0176 | Cc1c[nH]c2ncnc(N3CC[C@](N)(CNC(=O)c4ccc(F)c(F)c4)C3)c12 [Example 114]
0.00251 to 0.01 | 0.00998 | Cc1c[nH]c2ncnc(N3CC[C@](N)(CNC(=O)c4cccc(Cl)c4)C3)c12 [Example 115]
0.0101 to 0.1 | 0.0681 | Cc1c[nH]c2ncnc(N3CC[C@](N)(CNC(=O)c4c(F)cccc4Cl)C3)c12 [Example 116]
0.0101 to 0.1 | 0.0135 | Cc1cccc(C(=O)NC[C@@]2(N)CCN(c3ncnc4[nH]cc(C)c34)C2)c1Cl [Example 117]
0.0101 to 0.1 | 0.0124 | CCc1c[nH]c2ncnc(N3CC[C@](N)(CNC(=O)c4cccc(C)c4Cl)C3)c12 [Example 118]
0.00251 to 0.01 | 0.00785 | Cc1cccc(C(=O)NC[C@@]2(N)CCN(c3ncnc4[nH]cc(Cl)c34)C2)c1Cl [Example 119]
0.0101 to 0.1 | 0.0255 | Cc1c[nH]c2ncnc(N3CC[C@](N)(CNC(=O)c4c(F)ccc(F)c4F)C3)c12 [Example 120, N-{[(3S)-3-amino-1-(5-methyl-7H-pyrrolo[2,3-d]pyrimidin-4-yl)pyrrolidin-3-yl]methyl}-2,3,6-trifluorobenzamide]
0.0101 to 0.1 | 0.0418 | Cc1cccc(F)c1C(=O)NC[C@@]1(N)CCN(c2ncnc3[nH]cc(C)c23)C1 [Example 121]
0.0101 to 0.1 | 0.029 | Cc1cccc(F)c1C(=O)NC[C@@]1(N)CCN(c2ncnc3[nH]cc(Cl)c23)C1 [Example 122]
0.00251 to 0.01 | 0.00526 | Cc1c[nH]c2ncnc(N3CC[C@](N)(CNC(=O)c4cccc(F)c4Cl)C3)c12 [Example 123, N-{[(3S)-3-amino-1-(5-methyl-7H-pyrrolo[2,3-d]pyrimidin-4-yl)pyrrolidin-3-yl]methyl}-2-chloro-3-fluorobenzamide]
0.00251 to 0.01 | 0.00691 | N[C@]1(CNC(=O)c2cccc(F)c2Cl)CCN(c2ncnc3[nH]cc(Cl)c23)C1 [Example 124, N-{[(3S)-3-amino-1-(5-chloro-7H-pyrrolo[2,3-d]pyrimidin-4-yl)pyrrolidin-3-yl]methyl}-2-chloro-3-fluorobenzamide]
